Laboratory results: patent publication US8557816B2, “Aurora kinase modulators and method of use” (Amgen Inc., priority 2007, dated 2013)

Columns and labels:
AuroraB = molecular target: T1, AuroraB (Homo sapiens, UniProt Q96GD4); test: AuroraB Homogeneous Time Resolved Fluorescent (HTRF) kinase assay; assay type: biochemical; settings: average; read-out: AurB_IC50_IP (uM Avg)
T1 construct: 20 μL of AuroraB FL H is for a final volume of 41 μL; His
Procedure, shortened: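 Full-length His-tagged kinase phosphorylates biotinylated Histone H3 (0.1 μM final) with ATP in pH 7.5 HEPES containing MgCl, MnCl, DTT and BSA for about 90 min. EDTA-containing detection mix with SA-APC and Eu-anti-phosphoHistone H3 then equilibrated about 60 min; HTRF read with 320 nm excitation, emissions 615/655 nm.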

AuroraA-TPX2 = molecular target: T2, AuroraA-TPX2 (Homo sapiens, UniProt O14965); test: AuroraA-TPX2 Homogeneous Time Resolved Fluorescent (HTRF) kinase assay; assay type: biochemical; settings: average; read-out: AurA_IC50_IP (uM Avg)
T2 construct: 20 μL of AuroraA-TPX2 KD GST for a final volume of about 41 μL; GST
T2 sequence (O14965 133-383 limits assumed): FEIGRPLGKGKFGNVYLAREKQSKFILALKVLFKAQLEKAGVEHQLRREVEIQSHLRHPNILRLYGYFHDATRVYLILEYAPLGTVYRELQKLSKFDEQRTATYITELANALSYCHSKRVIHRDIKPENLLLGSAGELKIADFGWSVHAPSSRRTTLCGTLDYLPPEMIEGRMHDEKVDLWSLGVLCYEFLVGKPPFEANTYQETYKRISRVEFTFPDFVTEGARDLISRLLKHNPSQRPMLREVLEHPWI
T2 sequence (Q9ULW0 1-43 partner limits assumed): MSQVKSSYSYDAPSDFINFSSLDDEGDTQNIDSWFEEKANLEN
Procedure, shortened: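 HTRF read-out (Eu 615 nm to APC 655 nm) of phosphorylated biotin-PLK, detected with 0.02 nM europium anti-phosphoPLK antibody and 0.0005 mg/mL SA-APC after overnight equilibration.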

T1 sequence (Q96GD4 whole entry): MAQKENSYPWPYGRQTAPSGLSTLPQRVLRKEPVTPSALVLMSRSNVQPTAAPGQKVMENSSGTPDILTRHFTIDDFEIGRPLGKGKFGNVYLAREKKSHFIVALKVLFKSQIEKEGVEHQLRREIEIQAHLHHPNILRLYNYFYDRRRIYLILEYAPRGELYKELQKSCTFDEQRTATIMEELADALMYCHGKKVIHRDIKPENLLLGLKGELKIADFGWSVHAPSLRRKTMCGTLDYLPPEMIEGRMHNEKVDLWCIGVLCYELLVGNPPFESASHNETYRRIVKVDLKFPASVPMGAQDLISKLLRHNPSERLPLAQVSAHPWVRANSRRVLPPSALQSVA

Row | IC50 (AuroraB) [µM] | IC50 (AuroraA-TPX2) [µM] | Structure (SMILES)
1 | 0.002 | 0.02 | Cn1cncc1-c1cc2nccc(Oc3ccc(Nc4nnc(-c5ccccc5)c5ccccc45)cc3)c2s1 [compound 202, N-(4-((2-(1-methyl-1H-imidazol-5-yl)thieno[3,2-b]pyridin-7-yl)oxy)phenyl)-4-phenyl-1-phthalazinamine]
2 | 0.017 | 0.026 | COc1cc2nccc(Sc3ccc(Nc4nnc(-c5cc(C)cs5)c5ccccc45)cc3)c2cn1 [compound 494]
3 | 0.041 | 0.378 | COc1cnc2c(Sc3ccc(Nc4nnc(C(C)C)c5ccccc45)cc3)ccnc2c1 [compound 558]
4 | 0.006 | 0.173 | COc1cnc2c(Oc3ccc(Nc4nnc(-c5ccccc5)cc4C(C)C)cc3)ccnc2c1 [compound 234, 4-(1-methylethyl)-N-(4-((7-(methyloxy)-1,5-naphthyridin-4-yl)oxy)phenyl)-6-phenyl-3-pyridazinamine]
5 | 0.028 | 0.021 | c1ccc(-c2nnc(Nc3ccc(Oc4ccnc5cc(-c6ccsc6)ccc45)cc3)c3ccccc23)cc1 [compound 339, 4-phenyl-N-(4-(7-(thiophen-3-yl)quinolin-4-yloxy)phenyl)phthalazin-1-amine]
6 | 0.005 | 0.022 | COc1cnc2c(Oc3ccc(Nc4nnc(-c5cccc(COC(C)=O)n5)c5ccccc45)cc3)ccnc2c1 [compound 132, (6-(4-((4-((7-(methyloxy)-1,5-naphthyridin-4-yl)oxy)phenyl)amino)-1-phthalazinyl)-2-pyridinyl)methyl acetate]
7 | 0.028 | 0.494 | Brc1ccc2c(Oc3ccc(Nc4nnc(-c5ccccc5)c5ccccc45)cc3)ccnc2c1 [compound 133, N-(4-((7-bromo-4-quinolinyl)oxy)phenyl)-4-phenyl-1-phthalazinamine]
8 | 0.256 | 0.794 | Brc1cnc2c(Oc3ccc(Nc4nnc(-c5ccccc5)c5ccccc45)cc3)ncnc2c1 [compound 599]
9 | 0.006 | 0.018 | COc1cccc(-c2nnc(Nc3ccc(Oc4ccnc5cc(OC)cnc45)cc3)c3ccccc23)c1 [compound 139, N-(4-((7-(methyloxy)-1,5-naphthyridin-4-yl)oxy)phenyl)-4-(3-(methyloxy)phenyl)-1-phthalazinamine]
10 | 0.022 | 0.057 | Cc1ccc(-c2ccc3c(Oc4ccc(Nc5nnc(-c6ccccc6)c6ccccc56)cc4)ccnc3c2)o1 [compound 344, N-(4-(7-(5-methylfuran-2-yl)quinolin-4-yloxy)phenyl)-4-phenylphthalazin-1-amine]
11 | 0.097 | > 25 | N#Cc1cc2nccc(Sc3ccc(Nc4nnc(-c5ccccc5)c5ccccc45)cc3)c2s1 [compound 458]
12 | 0.001 | 0.015 | NC(=O)c1cc2nccc(Oc3ccc(Nc4nnc(-c5ccccc5)c5ccccc45)cc3)c2s1 [Example 46, 7-(4-(4-phenylphthalazin-1-ylamino)phenoxy)thieno[3,2-b]pyridine-2-carboxamide]
13 | 0.006 | 0.266 | FC1(F)Oc2ccc(-c3nnc(Nc4ccc(Oc5ccnc6ccsc56)cc4)c4ccccc34)cc2O1 [compound 293, 4-(2,2-difluoro-1,3-benzodioxol-5-yl)-N-(4-(thieno[3,2-b]pyridin-7-yloxy)phenyl)-1-phthalazinamine]
14 | 0.032 | 0.219 | COc1cnc2c(N(C)c3ccc(Nc4nnc(-c5cc(C)cs5)c5ccccc45)cc3)ccnc2c1 [compound 247, N-methyl-N-(7-(methyloxy)-1,5-naphthyridin-4-yl)-N′-(4-(4-methyl-2-thienyl)-1-phthalazinyl)-1,4-benzenediamine]
15 | 0.007 | 0.18 | N#Cc1ccc2c(Sc3ccc(Nc4nnc(-c5ccccc5)c5ccccc45)cc3)ccnc2c1 [compound 208, 4-((4-((4-phenyl-1-phthalazinyl)amino)phenyl)thio)-7-quinolinecarbonitrile]
